According to the NIST ThermoML archive (doi:10.1016/j.jct.2012.03.025):
± gives the expanded uncertainty stated by the source.

Assay: mn = molality of the nth substance listed, in mol/kg
Conditions: 101 kPa, Liquid; for speed of sound: Sing-around technique in a fixed-path interferometer; for mass density: Vibrating tube method

CCCCn1cc[n+](C)c1.F[B-](F)(F)F [1-butyl-3-methylimidazolium tetrafluoroborate] + O
Conditions | mass density, 288.15 K [kg/m3] | mass density, 293.15 K [kg/m3] | mass density, 298.15 K [kg/m3] | mass density, 303.15 K [kg/m3] | mass density, 308.15 K [kg/m3] | speed of sound, 288.15 K [m/s] | speed of sound, 293.15 K [m/s] | speed of sound, 298.15 K [m/s] | speed of sound, 303.15 K [m/s] | speed of sound, 308.15 K [m/s]
m1 = 0.0514 | 1001.13 ± 0.057 | 1000.19 ± 0.057 | 998.93 ± 0.056 | 997.535 ± 0.057 | 995.822 ± 0.057 | 1471.9 ± 0.77 | 1487.3 ± 0.78 | 1500.9 ± 0.78 | 1512.8 ± 0.78 | 1523 ± 0.78
m1 = 0.1056 | 1003.19 ± 0.06 | 1002.21 ± 0.059 | 1000.85 ± 0.058 | 999.439 ± 0.058 | 997.645 ± 0.058 | 1476.9 ± 0.78 | 1492 ± 0.79 | 1505 ± 0.79 | 1516.2 ± 0.79 | 1526 ± 0.8
m1 = 0.1559 | 1005.1 ± 0.063 | 1004.06 ± 0.062 | 1002.6 ± 0.061 | 1001.17 ± 0.061 | 999.334 ± 0.06 | 1481.5 ± 0.79 | 1495.9 ± 0.8 | 1508.5 ± 0.8 | 1519.5 ± 0.8 | 1528.8 ± 0.81
m1 = 0.201 | 1006.76 ± 0.066 | 1005.67 ± 0.065 | 1004.18 ± 0.064 | 1002.7 ± 0.064 | 1000.82 ± 0.063 | 1485.3 ± 0.81 | 1499.3 ± 0.81 | 1511.3 ± 0.81 | 1522.1 ± 0.81 | 1531.1 ± 0.82
m1 = 0.2573 | 1008.83 ± 0.07 | 1007.69 ± 0.07 | 1006.13 ± 0.069 | 1004.58 ± 0.068 | 1002.65 ± 0.067 | 1490 ± 0.82 | 1503.4 ± 0.82 | 1515 ± 0.83 | 1525.2 ± 0.83 | 1533.7 ± 0.83
m1 = 0.3001 | 1010.36 ± 0.073 | 1009.21 ± 0.073 | 1007.59 ± 0.072 | 1005.98 ± 0.071 | 1004.05 ± 0.07 | 1493.2 ± 0.83 | 1506.2 ± 0.84 | 1517.5 ± 0.84 | 1527.3 ± 0.84 | 1535.6 ± 0.84
m1 = 0.3504 | 1012.17 ± 0.078 | 1010.97 ± 0.077 | 1009.26 ± 0.076 | 1007.63 ± 0.075 | 1005.66 ± 0.075 | 1496.9 ± 0.85 | 1509.5 ± 0.85 | 1520.4 ± 0.85 | 1529.8 ± 0.85 | 1537.7 ± 0.86
m1 = 0.4093 | 1014.26 ± 0.083 | 1012.98 ± 0.083 | 1011.22 ± 0.082 | 1009.47 ± 0.081 | 1007.54 ± 0.08 | 1501.1 ± 0.86 | 1513.2 ± 0.87 | 1523.6 ± 0.87 | 1532.6 ± 0.87 | 1540.1 ± 0.87
m1 = 0.4506 | 1015.7 ± 0.088 | 1014.4 ± 0.087 | 1012.58 ± 0.086 | 1010.78 ± 0.085 | 1008.78 ± 0.084 | 1504 ± 0.87 | 1515.6 ± 0.88 | 1525.8 ± 0.88 | 1534.5 ± 0.88 | 1541.7 ± 0.88
m1 = 0.508 | 1017.7 ± 0.094 | 1016.36 ± 0.092 | 1014.5 ± 0.092 | 1012.56 ± 0.091 | 1010.59 ± 0.09 | 1507.4 ± 0.89 | 1519 ± 0.89 | 1528.5 ± 0.9 | 1536.8 ± 0.9 | 1543.7 ± 0.9

CCCCn1cc[n+](C)c1.O=S(=O)([O-])C(F)(F)F [1-butyl-3-methylimidazolium trifluoromethanesulfonate] + O
Conditions | mass density, 288.15 K [kg/m3] | mass density, 293.15 K [kg/m3] | mass density, 298.15 K [kg/m3] | mass density, 303.15 K [kg/m3] | mass density, 308.15 K [kg/m3] | speed of sound, 288.15 K [m/s] | speed of sound, 293.15 K [m/s] | speed of sound, 298.15 K [m/s] | speed of sound, 303.15 K [m/s] | speed of sound, 308.15 K [m/s]
m1 = 0.051 | 1002.68 ± 0.083 | 1001.73 ± 0.082 | 1000.53 ± 0.081 | 999.089 ± 0.081 | 997.44 ± 0.081 | 1472.8 ± 0.78 | 1488 ± 0.79 | 1501.7 ± 0.79 | 1513.5 ± 0.79 | 1523.6 ± 0.8
m1 = 0.1023 | 1006.18 ± 0.088 | 1005.17 ± 0.087 | 1003.9 ± 0.086 | 1002.43 ± 0.085 | 1000.76 ± 0.085 | 1478.5 ± 0.81 | 1493.2 ± 0.81 | 1506.2 ± 0.82 | 1517.4 ± 0.82 | 1527 ± 0.82
m1 = 0.1499 | 1009.37 ± 0.094 | 1008.3 ± 0.093 | 1007 ± 0.092 | 1005.49 ± 0.091 | 1003.78 ± 0.091 | 1483.8 ± 0.84 | 1497.9 ± 0.84 | 1510.2 ± 0.85 | 1520.8 ± 0.85 | 1529.8 ± 0.85
m1 = 0.1996 | 1012.64 ± 0.1 | 1011.5 ± 0.1 | 1010.17 ± 0.1 | 1008.6 ± 0.1 | 1006.87 ± 0.099 | 1489.1 ± 0.87 | 1502.4 ± 0.88 | 1514.2 ± 0.88 | 1524.5 ± 0.88 | 1533 ± 0.88
m1 = 0.2496 | 1015.85 ± 0.11 | 1014.68 ± 0.11 | 1013.28 ± 0.11 | 1011.7 ± 0.11 | 1009.91 ± 0.11 | 1494.2 ± 0.91 | 1507 ± 0.91 | 1518.1 ± 0.91 | 1527.6 ± 0.91 | 1535.6 ± 0.92
m1 = 0.3019 | 1019.2 ± 0.13 | 1017.92 ± 0.12 | 1016.52 ± 0.12 | 1014.86 ± 0.12 | 1013.02 ± 0.12 | 1499.2 ± 0.94 | 1511.3 ± 0.95 | 1521.8 ± 0.95 | 1530.8 ± 0.95 | 1538.2 ± 0.95
m1 = 0.3489 | 1022.13 ± 0.14 | 1020.78 ± 0.14 | 1019.36 ± 0.14 | 1017.64 ± 0.14 | 1015.77 ± 0.13 | 1503.5 ± 0.98 | 1515 ± 0.98 | 1525 ± 0.98 | 1533.5 ± 0.99 | 1540.5 ± 0.99
m1 = 0.4034 | 1025.46 ± 0.15 | 1024.1 ± 0.15 | 1022.57 ± 0.15 | 1020.8 ± 0.15 | 1018.88 ± 0.15 | 1508.2 ± 1 | 1519 ± 1 | 1528.4 ± 1 | 1536.3 ± 1 | 1542.8 ± 1
m1 = 0.4532 | 1028.45 ± 0.17 | 1027.06 ± 0.17 | 1025.5 ± 0.17 | 1023.65 ± 0.17 | 1021.69 ± 0.17 | 1512.3 ± 1.1 | 1522.7 ± 1.1 | 1531.5 ± 1.1 | 1538.9 ± 1.1 | 1544.9 ± 1.1
m1 = 0.5045 | 1031.5 ± 0.19 | 1030.04 ± 0.19 | 1028.46 ± 0.19 | 1026.57 ± 0.19 | 1024.5 ± 0.18 | 1517 ± 1.1 | 1526.9 ± 1.1 | 1534.1 ± 1.1 | 1541 ± 1.1 | 1546.6 ± 1.1
